# Laboratory results published in patent publication US20250369032A1 (priority 2023, published 2025).
# Values joined by “and” are separate entries in the source; they are usually repeats but may differ in a detail not shown here. Equal entries are not always repeated. Where two headings read alike, the source gives them in different places.
# Key:
# alkaline phosphatase [1] = target: T1, alkaline phosphatase (Bos taurus, UniProt P19111); assay type: biochemical; parameters: purchased Sigma Aldrich, St. Louis, MO P0114 (original source); P7640 (second source, 'new AP' condition only)
# skin = conditions: cited from earlier work
# [2] = system: endogenous skin phosphatase; assay type: biochemical, porcine; conditions: optical density compared to the naïve condition
# Description: Our next studies involved applying the test substance (500 μL) directly to the epidermis side of previously frozen porcine skin (Spear Products, Coopersburg, PA) that is placed in a holder that only exposes the epidermis side for 30 minutes, adding phosphate buffered saline (PBS) with added sodium azide (metabolic inhibitor that ensure no viable tissue), then aliquoting into cuvettes to read at an optical density of 300 nm. […] So, at the end of the initial studies described above, almost out of frustration, we tried to probe for released phosphatase activity using p-Nitrophenyl phosphate disodium salt (PNPP; Sigma Aldrich, St. Louis, MO) substrate solution to detect any presence of phosphatase.
# • 1. Thaw 2 pieces of frozen porcine skin • a. Punch out as many skin discs and mount in holders • 2. Label cuvettes (3 for each chemical)
# • 1. Add 500 μL of test chemical to holder; incubate at room temperate for 30 minutes • 2. After 30 minutes, add 2 mL of PBS-Azide to both the holder containing the test chemical; forcefully pipette and re-pipette 10 times • 3. From the holder, aliquot 400 μL into 3 cuvettes; forcefully pipette and re-pipette 3 times before dispensing into cuvettes
# Skin corrosion by GHS Category 1 dermal corrosive chemicals results in the disintegration of the epidermis into the dermis.
# alkaline phosphatase [3] = target: T1, alkaline phosphatase; assay type: biochemical; parameters: purchased Sigma Aldrich, St. Louis, MO P0114 (original source); P7640 (second source, 'new AP' condition only); conditions: original alkaline phosphatase 1:100 dilution
# Excerpt: Our next study focused on an in vitro method of detecting the potential of dermal corrosives to inhibit nonspecific phosphatases that may be released from the skin. We decided to test pure […] instead of relying on endogenous skin phosphatase. Alkaline phosphatase (Sigma Aldrich, St. Louis, MO) was purchased and suspended to make the reaction reagent (10,000 units). […] We note that the ratio used was 0.1 g/ml or 10% chemical-which is far in excess of any pharmaceutical applications. We further note that pharmaceutical enzyme inhibition tests, studies an use involve highly specific active site binding and these assays are conducted at ratios of micrograms-femtograms per ml. These studies are done at these ranges because these are the realistic concentrations for drug applications and therapeutics. […] So when a 50 Kg human consumes the tables, the tissues will be exposed at a 5 mg/50 kg=0.1 mg/kg=0.0000001 g/ml.
# Next two quantitative methods were evaluated: 1) using the discs parts from our OptiSafe™ test method and 2) directly into the 24-well plate.
# • 1. Alkaline phosphatase reaction reagent • a. Take 1 vial of AP, add 1 mL of PBS, mix by pipette/re-pipette 10 times • b. To a 50 mL conical tube, add 1 mL of the AP solution prepared above and 40 mL of PBS • 2. Prepare two 24-well plates (1 with discs, 1 without discs) • 3. […] Aliquot 200 μL PNPP and PBS
# • 1. Plate 1 (No Discs) • a. Add 1.25 mL from the prepared PBS-AP conical tube to each well (11 wells) • b. Add 100 μL of the test material to the well, mix with the same pipette tip, dispose and repeat for the rest of the test materials • c. Wrap the plate in saran wrap and place into the container • 2. Plate 2 (Discs) • a. Configure the 11 discs in the plate so the plate cover is stable • b. Add 1.25 mL from the prepared PBS-AP conical tube to each well (11 wells) • c. Add 100 μL of the test material to the center of the disc and repeat for the rest of the test materials • d. Put the plate cover on and place into the container • 3. […] Incubate for 1 hour
# For the new study, the alkaline phosphatase was suspended in phosphate buffered saline (PBS) to make the reaction reagent. Then, 100 μL of the test chemical is added directly into the corresponding wells on a 24-well plate with 1.25 mL of alkaline phosphatase reaction reagent already aliquoted.
# • 1. Alkaline phosphatase reaction reagent • a. Take 1 vial of AP, add 1 mL of PBS, mix by pipette/re-pipette 10 times • b. To a 50 mL conical tube, add 1 mL of the AP solution prepared above and 40 mL of PBS • 2. Prepare two 24-well plates • 3. […] Aliquot with 200 μL PNPP and PBS • 4. Prepare glass vials Repeat Procedure from Jan. […] 24-well plate • a. Add 1.25 mL from the prepared PBS-AP conical tube to each well (11 wells) • b. Add 100 μL of the test material to the well, mix with the same pipette tip, dispose and repeat for the rest of the test materials • c. Wrap the plate in saran wrap and place into the container • 2. […] To the prepared 96-well plate with 200 μL PNPP or PBS, add 20 μL from the 24-well plate • 4. Incubate for 1 hour • 5.
# • 1. 24-well plate • a. Add 1.25 mL from the prepared PBS-AP conical tube to each well (11 wells) • b. Add 100 μL of the test material to the well, mix with the same pipette tip, dispose and repeat for the rest of the test materials • c. After 10 minutes, mix each well • 2.
# porcine skin = conditions: R 1 and 2
# Description: Our initial studies involved using fresh and frozen porcine skin “buttons”. These buttons were punched out of porcine skin (Spear Products, Cooopersburg, PA) using a […] biopsy punch tool. Three different kinds of skin buttons were prepared from fresh porcine skin, frozen porcine skin, and frozen porcine skin with the fatty layer removed. […] The next day, the tubes were taken out and vortexed and 500 μL of the solution was aliquoted into cuvettes to read at three different optical density wavelengths (OD190, OD290, OD300) to evaluate the best response.
# • 1. Thaw 2 pieces of frozen porcine skin • 2. Punch out buttons: 24 buttons in each tube filled with 40 mL PBS-Azide
# • 1. Plate layout for dosing:
# • 1. Dose each tissue with 140 μL of test chemical • 2.
# • 1. Take out of incubator and vortex pulse 3× • 2. Aliquot 500 μL to cuvette and read results at OD190, OD290, and OD300
# There were three readings done at an optical density of 190, 290, and 300 nm to evaluate the best response. […] To address the variable exposure conditions, our next studies involved placing a larger porcine skin section into a holder that exposes only the epidermis side with no potential for test chemical exposure from the backside or through the sides.
# [4] = 1:100, 20 μL into 180 μL, 0.5 mL microcentrifuge tubes, 4 hours RT, PNPP 60 min, 405 nm
# [5] = average of R1-R3, 1:100, 20 μL into 180 μL, 4 hours RT, PNPP 60 min, 405 nm
# [6] = skin, chemical lists of the protocols
# [7] = fresh porcine skin, 140 μL, 18 hours at 37° C. in PBS-Azide
# [8] = frozen porcine skin with fat layer removed
# T1 sequence (P19111 20-506): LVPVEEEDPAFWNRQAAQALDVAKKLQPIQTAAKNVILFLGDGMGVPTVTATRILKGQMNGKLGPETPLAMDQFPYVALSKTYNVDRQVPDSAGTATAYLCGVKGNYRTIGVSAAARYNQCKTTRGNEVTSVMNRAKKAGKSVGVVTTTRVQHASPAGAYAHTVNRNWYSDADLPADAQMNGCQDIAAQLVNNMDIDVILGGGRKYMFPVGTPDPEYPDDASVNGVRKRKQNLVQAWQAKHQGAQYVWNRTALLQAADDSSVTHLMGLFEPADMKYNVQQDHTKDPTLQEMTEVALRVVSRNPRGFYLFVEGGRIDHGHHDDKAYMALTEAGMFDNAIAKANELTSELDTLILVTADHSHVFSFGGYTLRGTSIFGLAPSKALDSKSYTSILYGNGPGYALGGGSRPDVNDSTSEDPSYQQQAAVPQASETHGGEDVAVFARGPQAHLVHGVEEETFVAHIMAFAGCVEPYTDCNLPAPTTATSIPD
SMILES,A1-Results R1 (alkaline phosphatase [1]; [4]),A1-Results R3 (alkaline phosphatase [1]; [4]),A1-Results AVG (alkaline phosphatase [1]; [5]),A1-Results AVG (alkaline phosphatase [1]),A1-Results R1 (alkaline phosphatase [1]),A1-Results R3 (alkaline phosphatase [1]),further results
CSc1ccc(C=O)cc1,3.354,3.238,3.344,,,,
CC/C=C\CC1=C(C)CCC1=O,,,,3.502,3.502,3.502,
CC(C)=CCC/C(C)=C/CO,3.406,3.502,3.470,,,,"in vivo GHS (skin; [6]): Cat. 2 (Category 2 (irritation; mean score of ≥2.3 and ≤4.0 for erythema/eschar or for oedema in at least 2 of 3 tested animals at 24, 48, and 72 hours or inflammation that persists to the end of 14 days))"
CCCCCBr [1-Bromopentane],3.428,3.056,3.261,,,,"in vivo GHS (skin; [6]): Cat. 2 (Category 2 (irritation; mean score of ≥2.3 and ≤4.0 for erythema/eschar or for oedema in at least 2 of 3 tested animals at 24, 48, and 72 hours or inflammation that persists to the end of 14 days))"
CCCCCCCCCCO [1-Decanol],,,,3.449,3.502,3.380,
CC(C)(O)CCc1ccccc1 [2-Methyl-4-phenyl-2-butanol],,,,,,,"percent of phosphatase measured (first reading) [2]: 98.6%; percent of phosphatase measured (second reading) [2]: 100.0%; percent of phosphatase measured, average [2]: 99.3%; Corrosive (skin; Table 2): No"
CC(C)(C)c1ccccc1O [2-tert-Butylphenol],0.437,0.607,0.524,,,,"in vivo GHS (skin; rabbit, in vivo): Cat. 1B/1C; prediction based on OD405 values (FIG. 6D) (alkaline phosphatase [3]): correctly predicted; prediction based on OD405 values (FIG. 6B) (alkaline phosphatase [1]; original alkaline phosphatase 1:1, 18 hours room temperature): incorrectly predicted"
BrCCc1ccccc1 [(2-Bromoethyl)benzene],,,,,,,"percent of phosphatase measured (first reading) [2]: 100.0%; percent of phosphatase measured (second reading) [2]: 100.0%; percent of phosphatase measured, average [2]: 100.0%; Corrosive (skin; rabbit, in vivo): No"
CC(=O)OCc1ccccc1 [Benzyl Acetate],3.401,3.502,3.463,,,,
O=C(OCc1ccccc1)c1ccccc1O [Benzyl Salicylate],3.502,3.445,3.464,,,,
CC(C=O)Cc1ccc(C(C)C)cc1 (stereo not shown) [Cyclamen aldehyde],3.405,3.502,3.470,,,,"OD190 (porcine skin; [7]): 0.694 and 0.716; OD290 (porcine skin; [7]): 0.290 and 0.477; OD300 (porcine skin; [7]): 0.274 and 0.447; OD190 (porcine skin; [8]): 0.222 and 0.214; OD290 (porcine skin; [8]): 0.195 and 0.153; OD300 (porcine skin; [8]): 0.142 and 0.119; OD290 (porcine skin; frozen porcine skin): 1.023 and 0.955; OD300 (porcine skin; frozen porcine skin): 0.901 and 0.852; percent of phosphatase measured (first reading) [2]: 100.0%; percent of phosphatase measured (second reading) [2]: 100.0%; percent of phosphatase measured, average [2]: 100.0%; Corrosive (skin; Table 2): No; in vivo GHS (skin; skin, Tables 1A-1C and 2): Cat. 2; in vivo GHS (skin; [6]): Cat. 2 (Category 2 (irritation; mean score of ≥2.3 and ≤4.0 for erythema/eschar or for oedema in at least 2 of 3 tested animals at 24, 48, and 72 hours or inflammation that persists to the end of 14 days))"
CCCCCCC=O [Heptanal],,,,3.196,3.409,3.049,"percent of phosphatase measured (first reading) [2]: 100.0%; percent of phosphatase measured (second reading) [2]: 94.4%; percent of phosphatase measured, average [2]: 97.2%; Corrosive (skin; rabbit, in vivo): No; in vivo GHS (skin; rabbit, in vivo): Cat. 2"
CC(CC=O)CCCC(C)(C)O (stereo not shown) [Hydroxycitronellal],,,,3.356,3.412,3.154,
CC(C)O [Isopropanol],,,,3.423,3.484,3.305,
CCCCCCCCCCCCCC(=O)OC(C)C [Isopropyl Myristate],,,,3.451,3.373,3.484,
OCCc1ccccc1 [Phenylethyl alcohol],,,,3.469,3.502,3.403,
OCCOCCOCCO [Triethylene glycol],,,,,,,"percent of phosphatase measured (first reading) [2]: 29.5%; percent of phosphatase measured (second reading) [2]: 28.2%; percent of phosphatase measured, average [2]: 28.9%; Corrosive (skin; rabbit, in vivo): No"
CC1=CCC(C(C)(C)O)CC1 (stereo not drawn) [alpha-Terpineol],3.502,3.502,3.502,,,,
CCCSSCCC [di-n-Propyl disulfide],3.467,3.395,3.445,,,,"percent of phosphatase measured (first reading) [2]: 68.1%; percent of phosphatase measured (second reading) [2]: 71.6%; percent of phosphatase measured, average [2]: 69.9%; Corrosive (skin; Table 2): No; in vivo GHS (skin; skin, Tables 1A-1C and 2): Cat. 2; in vivo GHS (skin; [6]): Cat. 2 (Category 2 (irritation; mean score of ≥2.3 and ≤4.0 for erythema/eschar or for oedema in at least 2 of 3 tested animals at 24, 48, and 72 hours or inflammation that persists to the end of 14 days))"
CCCCCCCN [n-Heptylamine],,,,2.557,2.141,2.862,in vivo GHS (skin; [6]): Cat. 1B/1C; OD405 readings (FIG. 6D) (alkaline phosphatase [1]): 3.244 and 3.057 and 3.152; prediction based on OD405 values (FIG. 6B) (alkaline phosphatase [1]): incorrectly predicted
"C=C(C)[C@@H]1CC=C(CO)CC1 [p-Metha-1,8-dien-7-ol]",,,,,,,"in vivo GHS (skin; [6]): Cat. 2 (Category 2 (irritation; mean score of ≥2.3 and ≤4.0 for erythema/eschar or for oedema in at least 2 of 3 tested animals at 24, 48, and 72 hours or inflammation that persists to the end of 14 days))"
